Broadly, the EC50 is the concentration needed to bring the measured effect to its halfway point.

The conditions of this assay: inactive by the depositor's call.
Compound `c1ccc(CSc2ccc(-c3ccccn3)nn2)cc1` [3-(benzylthio)-6-(2-pyridyl)pyridazine] showed an EC50 of 45.1 µM.
With `O=C(Nc1ccc2c(c1)CCC2)c1cccc(F)c1` [3-fluoro-N-indan-5-yl-benzamide] the figure was 50.2 µM.
In turn, `Brc1ccccc1OCCCn1cnc2ccccc21` [1-[3-(2-bromanylphenoxy)propyl]benzimidazole] showed an EC50 of 62.3 µM. This EC50 and that of the compound before are within 1.5-fold of each other.
Consider `COc1nc(-c2ccccc2)nnc1-c1ccccc1` [3,6-diphenyl-1,2,4-triazin-5-yl methyl ether], for which a half-maximal response (EC50) required 38.9 µM.
Under `S=C(c1ccc(-c2cccc(Cl)c2)o1)N1CCOCC1` [MLS000107692] stands 89.6 µM; under `CCCCSc1ncc(C(=O)OCC)c(N)n1` [4-Amino-2-butylsulfanyl-pyrimidine-5-carboxylic acid ethyl ester], 46.2 µM; under `COc1ccc(C2=NOC(CN3C(=O)c4ccccc4S3(=O)=O)C2)cc1` (stereo not drawn), 55 µM.
Under `Cc1ccnc(NC(=O)c2cc3ccccc3oc2=O)c1` [2-keto-N-(4-methyl-2-pyridyl)chromene-3-carboxamide] stands 47.2 µM; under `O=C(Nc1ccccc1)c1ccc2c(c1)OCCO2` [2,3-Dihydro-benzo[1,4]dioxine-6-carboxylic acid phenylamide], 41.7 µM; under `Nc1ccccc1C(=O)/C=C/c1ccc2c(c1)OCO2`, 55.6 µM.
With `Oc1ccc(CN2CCCCC2)c2cccnc12` [5-(1-piperidinylmethyl)-8-quinolinol] the figure was 53.8 µM.
The compound `NC(=NOC(=O)COc1ccccc1Cl)c1ccccn1` [2-(2-chlorophenoxy)acetic acid [(Z)-[amino(2-pyridinyl)methylidene]amino] ester] showed an EC50 of 39.1 µM.
With `CCCNC(=O)c1noc2c1CCc1cc(OC)ccc1-2` [7-methoxy-N-propyl-4,5-dihydrobenz[g]indoxazene-3-carboxamide] the figure was 39.9 µM; with `Cn1nnc(-c2ccc(OCc3ccccc3F)cc2)n1` [5-[4-(2-fluorobenzyl)oxyphenyl]-2-methyl-tetrazole], 69.3 µM.
Under `CCn1cnc2sc(-c3ccccc3)cc2c1=O` [3-ethyl-6-phenyl-4-thieno[2,3-d]pyrimidinone] stands 35.2 µM; under `Fc1ccc(NC(=S)Nc2nccs2)cc1` [1-(4-fluorophenyl)-3-(1,3-thiazol-2-yl)thiourea], 35.6 µM.
With `CC(C)=CC(=O)Nc1ccc(Br)cc1` [N-(4-bromophenyl)-3-methylbut-2-enamide] the figure was 46.4 µM.
`Cc1ccc(NC(=O)c2noc3c2CCCCC3)cc1` [MLS000087401] displayed an EC50 of 33.6 µM.
Under `COc1ccc2c3c(cccc13)C(=O)N(O)C2=O` stands 41.6 µM; under `NC(=O)Cc1ccc2sc(-c3ccccc3)nc2c1` [2-(2-phenyl-1,3-benzothiazol-5-yl)acetamide], 36.5 µM.
In turn, `CN(C)/C=N/c1ccc2nn(-c3ccccc3)nc2c1` [MLS000105162] returned an EC50 of 42.9 µM.
Under `O=c1oc(-c2ccccc2)nc2sc3c(c12)CCCC3` [2-phenyl-5,6,7,8-tetrahydro-4H-[1]benzothieno[2,3-d][1,3]oxazin-4-one] stands 69.5 µM.
With `Cc1ccn2c(c1)nc(=S)n2C(=O)c1ccco1` [2-furanyl-(7-methyl-2-sulfanylidene-[1,2,4]triazolo[1,5-a]pyridin-3-yl)methanone] the figure was 56.4 µM; with `O=C1CCCc2nc(N3CCc4ccccc43)ncc21` [2-(2,3-dihydroindol-1-yl)-7,8-dihydro-6H-quinazolin-5-one], 84.7 µM; with `COc1ccc(C2=Nc3ccccc3OC2)cc1` [3-(4-methoxyphenyl)-2H-1,4-benzoxazine], 45.6 µM.
Under `Cc1cccc(-c2cc(N)n(-c3ccccc3)n2)c1` [5-(3-methylphenyl)-2-phenyl-3-pyrazolamine] stands 80.1 µM; under `COc1ccc(-c2cn3cc(C(F)(F)F)cc(Cl)c3n2)cc1` [4-[8-chloro-6-(trifluoromethyl)imidazo[1,2-a]pyridin-2-yl]phenyl methyl ether], 64.2 µM.
For the compound `Cc1ccc(OCc2nnc(-c3ccccn3)[nH]2)cc1`, the midpoint of the response, the EC50, lay at 78.8 µM.
With `CCOC(=O)c1nn(-c2ccc(C)cc2)cc1C(=O)c1ccccc1` [4-benzoyl-1-(4-methylphenyl)-3-pyrazolecarboxylic acid ethyl ester] the figure was 36.7 µM.
Under `Cc1ccc2sc(NC(=O)CSc3nc(C)cc(C)c3C#N)nc2c1` [2-(3-Cyano-4,6-dimethyl-pyridin-2-ylsulfanyl)-N-(5-methyl-benzothiazol-2-yl)-acetamide] stands 31.8 µM; under `COc1ccc(OC(=O)c2cnn(-c3ccccc3)c2C)cc1` [(4-methoxyphenyl) 5-methyl-1-phenyl-pyrazole-4-carboxylate], 49.5 µM.
`COc1ccc2c(c1OC)C(=O)N(c1cccc(C(F)(F)F)c1)C2` [6,7-dimethoxy-2-[3-(trifluoromethyl)phenyl]-3H-isoindol-1-one] had an EC50 of 69.9 µM.
Regarding `Cc1cccc(NC(=O)c2ccc3ccccc3n2)c1C` [MLS000569762], it took 84.4 µM to reach a half-maximal effect (EC50).
Take `CCOc1ccc(C(=O)Nc2cccc(C(=O)O)c2)cc1Cl` [3-[(3-chloranyl-4-ethoxy-phenyl)carbonylamino]benzoic acid]: the EC50 amounted to 47.8 µM.
Under `CCCCNC(=S)Nc1ccc(-c2nc3ccc(C)cc3s2)cc1` [1-butyl-3-[4-(6-methyl-1,3-benzothiazol-2-yl)phenyl]thiourea] stands 39.6 µM; under `Nc1c(-c2ccccc2)cnn1-c1ccc(C(=O)O)cc1` [4-(5-amino-4-phenyl-1-pyrazolyl)benzoic acid], 46.2 µM.
In the case of `Nc1nc(-c2ccc3ccccc3c2)cs1` [4-(2-naphthalenyl)-2-thiazolamine], the EC50 was 35.5 µM.
The compound `COc1ccc(C(=O)Oc2c(CN3CCOCC3)cc(Cl)c3cccnc23)cc1` [4-methoxybenzoic acid [5-chloro-7-(4-morpholinylmethyl)-8-quinolinyl] ester] returned an EC50 of 46.5 µM.
